# Laboratory results: patent publication US5981517A, “Androstene derivatives” (priority 1997, dated 1999)
# Where “and” joins values, the source holds several entries; their conditions need not be identical. Identical values can stand only once. Like-named read-outs stand apart in the source and are kept apart here.
# How the values were obtained:
# granuloma / thymolysis = assay: Comparison of local effect and systemic side-effects (therapeutic index); type: in vivo, rat; details: granuloma relative potency / thymolysis relative potency
# Protocol: The test compound was dissolved in acetone and aliquots of varying concentrations were injected into cotton pellets. The pellets were dried and then one pellet was implanted beneath the skin of each test rat. Six days later, the animals were sacrificed and the granulation tissue (granuloma) which formed in and around the implanted pellet was removed, dried and weighed. In addition, the thymi and adrenals were removed and weighed.
# (§1) Several further studies were undertaken to determine the effects of a selected compound of the invention and prior art steroids on thymi weights in rats when the drugs were systemically administered. In each of these studies, male Sprague-Dawley rats were used. The test compounds were suspended in 0.5% CMC (carboxymethylcellulose) and injected subcutaneously once daily for three days. On the fifth day (48 hours following the last treatment), the animals were sacrificed and the thymi weights were recorded. Body weight gains were measured 24 hours after the last treatment.
# The ED50 's calculated for the local cotton pellet granuloma assay and the TED40 's calculated on the basis of thymus inhibition testing as described above were used to arrive at relative potency and a therapeutic index for a representative species of the invention as compared to prior art steroids.
# thymi = test system: thymi; set-up: species or system male Sprague-Dawley rats; details: rat, in vivo, sc
# Protocol: as §1, with “treatment. From the test results, the TED40 's (thymolytic effective doses, that is, doses required to achieve 40% inhibition of thymi weight) and relative potencies of a representative compound of the invention and reference steroids were calculated. […] It is evident that the higher the inhibition of thymus activity at a given dose, the more toxic the compound is.” for “treatment.”
# skin = assay: Skin weight test, 10 days of topical treatment in the rat; type: in vivo, Male Sprague-Dawley rats; details: for Wet skin weight, Treated, Decrease / Wet skin weight, Untreated, Decrease: percent decrease of the control; for Wet skin weight, Treated, Decrease: treated flank; for Wet skin weight, Untreated, Decrease: untreated flank; for Body wt. gain / Thymus wt. / Wet skin weight, Treated / Wet skin weight, Untreated: topical 0.1%, 10 days; for Body wt. gain / Thymus wt.: daily dose 30 μg; for Thymus wt. / Wet skin weight, Treated / Wet skin weight, Untreated: mean ± S.E.; for Wet skin weight, Treated: treated left flank; for Wet skin weight, Treated / Wet skin weight, Untreated: 30 μg daily; for Wet skin weight, Untreated: untreated right flank
# Protocol: Male Sprague-Dawley rats, weighing about 210 g, were lightly anesthetized with ether, shaved and marked in three areas on each flank with intradermally injected blue ink. […] Treated control animals received daily topical administration of the vehicle (DMF) alone. Solvent and test compound solutions (10 μL) were applied once daily for 10 consecutive days, with […] necessary. On the eleventh day, the animals were sacrificed, their skins were removed and 16 mm diameter plugs were punched out from each area. The plugs were scraped carefully to remove subcutaneous fat and muscle, then they were blotted on filter paper and weighed. Skin atrophy is a known side effect associated with topically applied anti-inflammatory steroids.
# rats = details: oral; cited from earlier work
# [1] = test system: forearms of a human volunteer; assay: Further human vasoconstriction testing, Method 1; type: in vivo
# Protocol: The mixtures, in 50 μL amounts, were applied to circular patches (8 mm diameter). After evaporation of ethanol, the patches were applied to the forearms of a human volunteer, and covered with a water impervious film for 3 hr. The intensity of vasoconstriction (scale 0-4) was judged at various time intervals after removal of the patches. The grading scale was as follows: 0, normal skin; 1, slight pallor of indistinct outline; 2, pallor with at least two corners outlined; 3, even pallor with a clear outline of the application sites; 4, very intense pallor. The skin tests (2-4 tests on each compound) were performed on the same person.
# [2] = test system: forearm of a human volunteer; assay: Human vasoconstriction test; type: in vivo; set-up: key: 0 = normal skin, 4 = very intense pallor; details: 10 mM
# Protocol: Test compounds (10 mM) were dissolved in ethanol/propylene glycol (9/1) solution, and 50 μL of the mixtures were applied to circular patches, 8 mm in diameter. After ethanol evaporation, the patches were applied to the forearm of a human volunteer, and covered with a water impervious film for 3 hours. The intensity of vasoconstriction was judged 1, 8, 17 and 24 hours after the patches were removed.
# The grading scale for the vasoconstriction activity was as follows: 0, normal skin; 1, slight pallor of indistinct outline; 2, pallor with at least two corners outlined; 3, even pallor with a clear outline of the application sites; 4, very intense pallor.
# [3] = biological target: T1, rat lung glucocorticoid receptor (Rattus norvegicus, UniProt P06536); details: previously found, cited from earlier work
# T1 construct: Immediately after resection of the lungs, the tissue was frozen in ice; The cytosol was prepared; from tissue; host or cells: lung cytosol of adrenalectomized male Sprague-Dawley rats
# T1 sequence (P06536 1-795): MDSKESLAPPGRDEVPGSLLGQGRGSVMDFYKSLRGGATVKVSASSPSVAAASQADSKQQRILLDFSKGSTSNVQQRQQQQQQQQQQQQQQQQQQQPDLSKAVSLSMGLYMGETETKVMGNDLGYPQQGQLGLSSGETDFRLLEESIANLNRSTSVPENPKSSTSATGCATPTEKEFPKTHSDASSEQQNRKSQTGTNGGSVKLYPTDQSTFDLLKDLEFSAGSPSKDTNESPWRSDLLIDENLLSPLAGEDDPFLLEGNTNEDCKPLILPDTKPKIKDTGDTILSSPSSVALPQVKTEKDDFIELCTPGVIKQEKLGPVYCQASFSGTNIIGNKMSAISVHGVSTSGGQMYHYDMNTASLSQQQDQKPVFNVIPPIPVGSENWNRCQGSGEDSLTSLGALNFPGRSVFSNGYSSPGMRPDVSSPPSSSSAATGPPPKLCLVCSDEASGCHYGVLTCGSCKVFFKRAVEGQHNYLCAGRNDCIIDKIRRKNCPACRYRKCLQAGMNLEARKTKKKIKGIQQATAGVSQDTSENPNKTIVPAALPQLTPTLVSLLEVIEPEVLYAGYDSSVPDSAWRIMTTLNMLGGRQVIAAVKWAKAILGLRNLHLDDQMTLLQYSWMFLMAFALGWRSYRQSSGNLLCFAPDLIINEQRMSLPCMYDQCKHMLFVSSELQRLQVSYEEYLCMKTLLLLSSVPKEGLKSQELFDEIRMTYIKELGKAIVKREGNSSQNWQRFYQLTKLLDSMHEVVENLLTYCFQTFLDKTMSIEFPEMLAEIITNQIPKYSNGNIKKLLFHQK
compound,measurement,setting,value
CCC(=O)O[C@]1(C(=O)CCl)[C@@H](C)C[C@H]2[C@@H]3CCC4=CC(=O)C=C[C@]4(C)[C@@]3(F)[C@@H](O)C[C@@]21C [Clobetasol 17-propionate],Therapeutic Index (a/b),granuloma / thymolysis,1.54
same,"Thymolysis, Relative Potency at ED40 Level (b)",thymi,1927
same,"Wet skin weight, Treated, Decrease",skin,21.2%
same,"Wet skin weight, Untreated, Decrease",skin,19.2%
same,Body wt. gain,skin,24.2 ± 2.3 g
same,Thymus wt.,skin,190 ± 14 mg
same,"Wet skin weight, Treated",skin,78.2 mg
same,"Wet skin weight, Untreated",skin,67.6 ± 6.2 mg
CC(=O)O [Acetic acid],LD50,rats,3.53 g/kg
"CCOC(=O)O[C@]1(C(=O)OCCl)CC[C@H]2[C@@H]3CCC4=CC(=O)C=C[C@]4(C)[C@H]3[C@@H](O)C[C@@]21C [Loteprednol etabonate, chloromethyl 17α-ethoxycarbonyloxy-11β-hydroxyandrosta-1,4-dien-3-one-17β-carboxylate, reference compound]",Vasoconstriction activity,"[1]; 3 Hours, 0.01 mM",0
same,Vasoconstriction activity,"[1]; 3 Hours, 0.05 mM",0
same,Vasoconstriction activity,"[1]; 3 Hours, 0.1 mM",1
same,Vasoconstriction activity,"[1]; 3 Hours, 0.5 mM",2
same,Vasoconstriction activity,"[1]; 3 Hours, 1 mM",3
same,Vasoconstriction activity,"[1]; 3 Hours, 5 mM",3
same,Vasoconstriction activity,"[1]; 3 Hours, 10 mM",4
same,Vasoconstriction activity,"[1]; 20 Hours, 0.01 mM",0
same,Vasoconstriction activity,"[1]; 20 Hours, 0.05 mM",0
same,Vasoconstriction activity,"[1]; 20 Hours, 0.1 mM",0
same,Vasoconstriction activity,"[1]; 20 Hours, 0.5 mM",0
same,Vasoconstriction activity,"[1]; 20 Hours, 1 mM",0
same,Vasoconstriction activity,"[1]; 20 Hours, 5 mM",1
same,Vasoconstriction activity,"[1]; 20 Hours, 10 mM",2
same,Vasoconstriction activity,[2]; 1 hour after patch removal,2
same,Vasoconstriction activity,[2]; 8 hours after patch removal,3 and 2
same,Vasoconstriction activity,[2]; 17 hours after patch removal,2
same,Vasoconstriction activity,[2]; 24 hours after patch removal,2 and 1
same,RBA,[3]; with Δ1-cortienic acid,420
same,RBA,[3]; without Δ1-cortienic acid,152
CCCC(=O)O[C@]1(C(=O)CO)CC[C@H]2[C@@H]3CCC4=CC(=O)CC[C@]4(C)[C@H]3[C@@H](O)C[C@@]21C [Hydrocortisone 17-butyrate],Therapeutic Index (a/b),granuloma / thymolysis,1.23
same,"Thymolysis, Relative Potency at ED40 Level (b)",thymi,57
same,"Wet skin weight, Treated, Decrease",skin,13.1%
same,"Wet skin weight, Untreated, Decrease",skin,14.0%
same,Body wt. gain,skin,45.7 ± 10.6 g
same,Thymus wt.,skin,540 ± 61 mg
same,"Wet skin weight, Treated",skin,86.3 ± 1.5 mg
same,"Wet skin weight, Untreated",skin,72.0 ± 4.7 mg
CCC(=O)O [propionic acid],LD50,rats,4.29 g/kg
